Data: ChEMBL document CHEMBL1148582, “Metal-mediated inhibition of Escherichia coli methionine aminopeptidase: structure-activity relationships and development of a novel scoring function for metal-ligand interactions” (J Med Chem, 2006)
Calls of active or inactive are those of the source. No cut-off for these calls is given here.

Columns and labels:
[1] = target: T1, Methionine aminopeptidase (Escherichia coli K-12, UniProt P0AE18); assay: Inhibition of Co2+ loaded MetAP expressed in Escherichia coli
T1 sequence (P0AE18 whole entry): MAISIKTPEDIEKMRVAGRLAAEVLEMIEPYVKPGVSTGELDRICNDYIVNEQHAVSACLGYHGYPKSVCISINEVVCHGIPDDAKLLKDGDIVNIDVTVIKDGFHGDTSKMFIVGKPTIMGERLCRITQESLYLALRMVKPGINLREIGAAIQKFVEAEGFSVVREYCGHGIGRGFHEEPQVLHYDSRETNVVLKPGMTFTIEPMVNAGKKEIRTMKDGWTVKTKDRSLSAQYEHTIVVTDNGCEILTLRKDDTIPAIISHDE

[2] = target: T2, Methionine aminopeptidase (Escherichia coli K-12) (UniProt P0AE18); assay: Inhibition of Mn2+ loaded MetAP expressed in Escherichia coli at upto 10 uM
T2 sequence (whole entry): T1 sequence (P0AE18 whole entry)

[3] = target: T2, Methionine aminopeptidase (Escherichia coli K-12); assay: Inhibition of Co2+ loaded MetAP expressed in Escherichia coli at 10 uM

Row | Compound | IC50 [1] | inhibition [2] | inhibition [3]
1 | CC(C)(C)c1ccc2nc(-c3cscn3)[nH]c2c1 | 3.91 µM | – | –
2 | CC(C)(C)c1ccc2[nH]c(-c3ccccn3)nc2c1 | – | inactive | –
3 | COC(=O)Nc1nc2ccc(C(=O)c3ccccc3)cc2[nH]1 [MEBENDAZOLE] | > 10 µM | – | –
4 | Fc1ccc2[nH]c(-c3cscn3)nc2c1 | – | inactive | –
5 | Cc1cc2nc(-c3ccccn3)[nH]c2cc1C | 2.43 µM | inactive | –
6 | Cc1ccc2[nH]c(-c3ccccn3)nc2c1 | 2.09 µM | – | –
7 | CC(C)(C)c1ccc2[nH]c(-c3cscn3)nc2c1 | – | inactive | –
8 | COC(=O)Nc1nc2cc(Sc3ccccc3)ccc2[nH]1 | – | inactive | 6.07%
9 | c1coc(-c2nc3ccccc3[nH]2)c1 [FUBERIDAZOLE] | > 10 µM | inactive | 10.4%
10 | Nc1ccc2nc(-c3ccccn3)[nH]c2c1 | 0.967 µM | – | –
11 | c1c[nH]c2nc(-c3cscn3)nc-2c1 | 0.078 µM | inactive | –
12 | CC(C)(C)c1ccc2nc(-c3ccccn3)[nH]c2c1 | 2.6 µM | – | –
13 | CCCSc1ccc2nc(NC(=O)OC)[nH]c2c1 [ALBENDAZOLE] | > 10 µM | – | –
14 | c1ccc(-c2nc3c[nH]cnc-3n2)nc1 | 0.376 µM | inactive | –
15 | O=c1cccc(-c2nc3ccccc3[nH]2)[nH]1 | 1.34 µM | – | –
16 | NC(=S)Nc1nc2ccccc2[nH]1 | 8.96 µM | – | –
17 | c1ccc2[nH]c(-c3cscn3)nc2c1 [THIABENDAZOLE] | 0.472 µM | inactive | –
18 | Oc1cccc(-c2nc3ccccc3[nH]2)n1 | – | inactive | –
19 | c1ccc(Cn2c(-c3cscn3)nc3ccccc32)cc1 | – | inactive | –
20 | c1ccc(Cn2c(-c3ccccn3)nc3ccccc32)cc1 | 0.992 µM | inactive | –
21 | O=C(c1ccccc1)c1ccc2[nH]c(-c3ccccn3)nc2c1 | – | inactive | –
22 | Cc1cc2nc(-c3cscn3)[nH]c2cc1C | > 10 µM | inactive | 47.8%
23 | Cc1ccc2[nH]c(-c3cscn3)nc2c1 | – | inactive | –
24 | c1ccc2[nH]c(-c3cnccn3)nc2c1 | 4.59 µM | inactive | –
25 | c1ccc(-c2nc3ccc[nH]c-3n2)nc1 | 0.105 µM | inactive | –
26 | Fc1ccc2nc(-c3ccccn3)[nH]c2c1 | – | inactive | –
27 | c1ccc(-c2nc3cc[nH]cc-3n2)nc1 | 0.55 µM | inactive | –

Row | Compound | IC50 [1] | inhibition [2] | inhibition [3]
28 | c1cc2nc(-c3cscn3)[nH]c2cn1 | 1.72 µM | – | –
29 | Oc1cccnc1-c1nc2ccccc2[nH]1 | 0.777 µM | inactive | –
30 | Fc1ccc2[nH]c(-c3ccccn3)nc2c1 | 1.51 µM | – | –
31 | COC(=O)Nc1nc2ccc(Sc3ccccc3)cc2[nH]1 [FENBENDAZOLE] | > 10 µM | – | –
32 | Cn1c(-c2cscn2)nc2ccccc21 | – | inactive | –
33 | Oc1ccccc1-c1nc2ccccc2[nH]1 | > 10 µM | inactive | 30.4%
34 | N/C(S)=N/c1nc2ccccc2[nH]1 | – | inactive | –
35 | CCCSc1ccc2[nH]c(NC(=O)OC)nc2c1 | – | inactive | 15.4%
36 | c1ccc2[nH]c(Nc3nccs3)nc2c1 | 0.54 µM | inactive | –
37 | O=[N+]([O-])c1ccc2[nH]c(-c3cscn3)nc2c1 | – | inactive | –
38 | c1csc(-c2nc3ccccc3[nH]2)c1 | > 10 µM | inactive | 5.36%
39 | O=[N+]([O-])c1ccc2[nH]c(-c3ccccn3)nc2c1 | 0.162 µM | inactive | –
40 | Clc1ccc2[nH]c(-c3cscn3)nc2c1 | 5.15 µM | inactive | –
41 | c1ccc(-c2nc3ccccc3[nH]2)nc1 | 0.574 µM | inactive | –
42 | c1cncc(-c2nc3ccccc3[nH]2)c1 | > 10 µM | inactive | 4.21%
43 | COC(=O)Nc1nc2ccccc2[nH]1 [CARBENDAZIM] | > 10 µM | inactive | 17.6%
44 | N#Cc1ccc2[nH]c(-c3ccccn3)nc2c1 | 0.431 µM | inactive | –
45 | O=C(c1ccccc1)c1ccc2nc(-c3ccccn3)[nH]c2c1 | 0.403 µM | – | –
46 | COC(=O)Nc1nc2cc(C(=O)c3ccccc3)ccc2[nH]1 | – | inactive | 29%
47 | c1ccc(-c2nc3ncc[nH]c-3n2)nc1 | 0.24 µM | inactive | –
48 | Nc1ccc2[nH]c(-c3cscn3)nc2c1 | 3.39 µM | inactive | –
49 | Cc1ccc2nc(-c3ccccn3)[nH]c2c1 | – | inactive | –
50 | Nc1ccc2[nH]c(-c3ccccn3)nc2c1 | – | inactive | –
51 | Clc1ccc2nc(-c3ccccn3)[nH]c2c1 | 1.69 µM | inactive | –
52 | c1cc2[nH]c(-c3cscn3)nc2cn1 | – | inactive | –
53 | O=C(c1ccccc1)c1ccc2[nH]c(-c3cscn3)nc2c1 | – | inactive | –
